Experimental findings from PMC12549899 (Nature Communications, 2025) are described below.

The assay deals with T1, DrOTOP1 L205W (Danio rerio, UniProt Q7ZWK8, L205W).
T1 construct: A previously generated codon-optimized full-length DrOTOP1[8]; (UniProt: Q7ZWK8) construct; expressed in transfected cells; host or cells: HEK-293 (CRL-1573, ATCC)
T1 sequence (Q7ZWK8 1-586 L205W): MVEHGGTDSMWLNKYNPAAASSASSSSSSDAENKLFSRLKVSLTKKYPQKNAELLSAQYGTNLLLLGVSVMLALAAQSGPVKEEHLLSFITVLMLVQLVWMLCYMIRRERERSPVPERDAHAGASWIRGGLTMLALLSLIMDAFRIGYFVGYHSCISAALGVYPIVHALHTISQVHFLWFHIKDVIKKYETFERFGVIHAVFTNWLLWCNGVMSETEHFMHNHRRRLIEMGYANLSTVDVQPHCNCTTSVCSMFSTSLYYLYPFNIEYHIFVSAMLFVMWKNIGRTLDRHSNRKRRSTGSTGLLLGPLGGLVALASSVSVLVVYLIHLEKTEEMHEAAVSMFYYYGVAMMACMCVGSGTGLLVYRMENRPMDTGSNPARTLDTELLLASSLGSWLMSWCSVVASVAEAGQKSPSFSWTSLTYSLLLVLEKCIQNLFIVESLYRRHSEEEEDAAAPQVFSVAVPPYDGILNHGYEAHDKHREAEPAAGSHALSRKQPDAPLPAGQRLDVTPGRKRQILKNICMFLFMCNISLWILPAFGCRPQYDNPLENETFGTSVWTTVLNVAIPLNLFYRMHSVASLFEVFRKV
Briefly: Whole-cell patch-clamp, inhibition of acid-evoked currents, DrOTOP1 L205W. The conditions noted are these: single cells or mean; for Inhibition of currents: 10 µM. The format is cell-based, zebrafish (Danio rerio). An excerpt: To functionally test the significance of the two binding sites identified by cryo-EM, we generated point mutations of DrOTOP1 using the binding poses and conformational changes observed in DrOTOP1_C2.2 to guide our mutations. As per the binding pose that best fits our cryo-EM density, C2.2 forms the following interactions in the outer site: hydrophobic packing against many non-polar residues W126, G130, M133, L134, F271, F570, and M573, and π-stacking with W532 (Fig. 5A). In addition, C2.2 could potentially form H-bonds with E267, if the sidechain is protonated or a water bridge is present, and with H574 if it moves closer (Fig. 5A). Likewise, C2.36 presents a heterocyclic nitrogen that can potentially form a H-bond with E267, similarly, provided a protonation or water bridge is present (Fig. 5B). In addition, C2.36 forms a T-shaped π-stacking interaction with H574, whose sidechain has rotated 90 degrees (compared to DrOTOP1_apo), presumably to accommodate the interaction (Fig. 5B). Considering other inhibitors discovered from the second round of screening, many contain functional groups like the carbonyl groups of Group 1 molecules and the heterocyclic nitrogen atoms of Group 2 molecules (Supplementary Fig. 3E), that can potentially form similar H-bonds with E267 as C2.2 and C2.36, assuming the binding modes are similar. In the central site, C2.2 binds with the following interactions: hydrophobic packing with residues V201, F271, A274, V278, and A388, π-stacking with F277, and H-bonding with E384 (Fig. 5C).
We next tested mutations of the central site (L205W, A274W, F277A, E384A L385W, A388W). V201W and S389W, two additional central site mutations, were excluded from the study due to complete loss of channel activity. […]
Whole-cell patch-clamp recording was performed as previously described[6],[22],[25]. Recordings were made with an Axopatch 200B amplifier, digitized with a Digidata 1322a 16-bit data acquisition system, acquired with pClamp 8.2 and analyzed with Clampfit 10 (Molecular Devices). […]

One may read the inhibition as the drop in the measured response relative to a control, in per cent. The low end stands for little suppression, the high end for strong suppression.

SMILES strings stand for the structures. Values joined by “and” are separate entries in the source; they are usually repeats but may differ in a detail not shown here. Identical values can stand only once.

For the compound `C=C(C)COc1ccccc1NC(=O)c1nc[nH]c1C` [C2.2], the inhibition at 10 µM amounted to 64.2%. This compound also registered an Inhibition of currents (mean) of 69.03%. Besides, the Inhibition of currents (single cells) was 76.6896% and 67.1049% and 68.1116% and 69.0311%.
